“And” between values parts separate entries of the source, which are not always exact repeats. Equal values may be shown once.
Experiments:
PLK4 (h) = PLK4 (h) (Homo sapiens, UniProt O00444); assay: PLK-4 human kinase assay (SPA); assay type: biochemical; settings: read-out: PLK4 pIC50 (converted)
Summary of the method: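 Radiometric readout: 33P-labelled peptide captured on streptavidin SPA beads after EDTA stop, imaged by Leadseeker. Reaction ran 60 min at room temperature in Hepes pH 8.0 buffer. It contained 1 μM ATP with 2 nM [γ-33P]ATP, 10 μM biotinylated peptide and PLK4 (h) at 19 μg/ml.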

GSK3β (h) = GSK3β (h) (Homo sapiens, UniProt P49841); assay: GSK-3β human kinase assay (SPA); assay type: biochemical; settings: read-out: GSK3B pIC50 (converted)
Summary of the method: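 Radiometric SPA read-out: after EDTA stop, biotinylated 33P-labelled peptide bound streptavidin PVT beads and was imaged on Leadseeker. Reaction: 60 min, room temperature, GSK3β (h) at 1 μg/ml, 1 μM substrate peptide, 1 μM ATP with 2 nM [γ-33P]ATP, Tris pH 7.4/MgCl2/DTT buffer.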

CDK1/CyclinB (h) = CDK1/CyclinB (h) (Homo sapiens, UniProt P06493); assay: CDK1/CyclinB human kinase assay (FRET); assay type: biochemical; settings: read-out: CDK1 pIC50 (converted)
Summary of the method: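 Z'-LYTE FRET format: 0.2 μg/ml enzyme with 2 μM Ser/Thr peptide 12 and 10 μM ATP in 50 mM Hepes pH 7.5, 10 mM MgCl2, 1 mM EGTA, 0.01% Brij-35, 60 min at room temperature. Protease development 60 min; coumarin/fluorescein emission ratio (460/538 nm, excitation 390 nm) reports phosphorylation.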

SKOV3 = assay: Cellular proliferation assay (Alamar blue), SKOV3; assay type: cell-based; settings: Homo sapiens, SK-OV-3, SKOV3 cells, 72 hours with compound, 10% FCS, read-out: pIC50 SKOV3 (converted)
Summary of the method: (§1)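 Proliferation was assessed over 72 h of compound treatment, following 24 h of seeding without compound, under 10% FCS, 37° C. and 5% CO2. Fluorescent resazurin product was measured and compared with control cells.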

HT-29 = assay: Cellular proliferation assay (Alamar blue), HT-29; assay type: cell-based; settings: Homo sapiens, HT-29 cells, 72 hours with compound, 10% FCS, read-out: pIC50 HT-29 (converted)
Procedure: (§2) […] functional properties of these compounds was tested in cellular proliferation assays on a panel of different cell lines in the presence of 10% FCS serum (37° C. and 5% (v/v) CO2). In a first step these cells were seeded and incubated for 24 hours in the absence of compound. In the second step the cells were incubated for 72 hours with the compounds to be tested for 72 hours. The viable cell number was finally assessed in a standard Alamar blue cell viability assay.
(§3) The viable cell number was assessed by incubation for either 4 h (HCT-116, H1299, H460) 6 h (SKOV3, HT29, U87-MG, Colo205) or 24 h (A2780, PC3, MDA-MB-231, A549, MCF-7) with Alamar blue (Resazurin 9 μg/ml, K-Ferrocyanide 90 μM K-Ferricyanide 90 μM) and the converted fluorescent product was quantified on a fluorescent plate readed (544 nm/590 nm). Effect of the compounds is calculated as of on control cells.

HCT-116 = assay: Cellular proliferation assay (Alamar blue), HCT-116; assay type: cell-based; settings: Homo sapiens, HCT-116, 72 h, HCT-116 cells, 72 hours with compound, 10% FCS, read-out: pIC50 HCT-116 (converted)
Summary of the method: as §1

Colo205 = assay: Cellular proliferation assay (Alamar blue), Colo205; assay type: cell-based; settings: Homo sapiens, COLO 205, Colo205 cells, 72 hours with compound, 10% FCS, read-out: pIC50 Colo205 (converted)
Procedure: as §2, §3

H460 = assay: Cellular proliferation assay (Alamar blue), H460; assay type: cell-based; settings: Homo sapiens, NCI-H460, H460 cells, 72 hours with compound, 10% FCS, read-out: pIC50 H460 (converted)
Procedure: as §2, §3

DU-145 = assay: Cellular proliferation assay (Alamar blue), DU-145; assay type: cell-based; settings: Homo sapiens, DU-145 cells, 72 hours with compound, 10% FCS, read-out: pIC50 DU-145 (converted)
Procedure: as §2, §3

PC-3 = assay: Cellular proliferation assay (Alamar blue), PC-3; assay type: cell-based; settings: Homo sapiens, PC-3, 72 h, PC-3 cells, 72 hours with compound, 10% FCS, read-out: pIC50 PC-3 (converted)
Summary of the method: as §1

SK-N-SH = assay: Cellular proliferation assay (Alamar blue), SK-N-SH; assay type: cell-based; settings: Homo sapiens, SK-N-SH cells, 72 hours with compound, 10% FCS, read-out: pIC50 SK-N-SH (converted)
Procedure: as §2, §3

PLK4 (h), sequence (O00444 whole entry): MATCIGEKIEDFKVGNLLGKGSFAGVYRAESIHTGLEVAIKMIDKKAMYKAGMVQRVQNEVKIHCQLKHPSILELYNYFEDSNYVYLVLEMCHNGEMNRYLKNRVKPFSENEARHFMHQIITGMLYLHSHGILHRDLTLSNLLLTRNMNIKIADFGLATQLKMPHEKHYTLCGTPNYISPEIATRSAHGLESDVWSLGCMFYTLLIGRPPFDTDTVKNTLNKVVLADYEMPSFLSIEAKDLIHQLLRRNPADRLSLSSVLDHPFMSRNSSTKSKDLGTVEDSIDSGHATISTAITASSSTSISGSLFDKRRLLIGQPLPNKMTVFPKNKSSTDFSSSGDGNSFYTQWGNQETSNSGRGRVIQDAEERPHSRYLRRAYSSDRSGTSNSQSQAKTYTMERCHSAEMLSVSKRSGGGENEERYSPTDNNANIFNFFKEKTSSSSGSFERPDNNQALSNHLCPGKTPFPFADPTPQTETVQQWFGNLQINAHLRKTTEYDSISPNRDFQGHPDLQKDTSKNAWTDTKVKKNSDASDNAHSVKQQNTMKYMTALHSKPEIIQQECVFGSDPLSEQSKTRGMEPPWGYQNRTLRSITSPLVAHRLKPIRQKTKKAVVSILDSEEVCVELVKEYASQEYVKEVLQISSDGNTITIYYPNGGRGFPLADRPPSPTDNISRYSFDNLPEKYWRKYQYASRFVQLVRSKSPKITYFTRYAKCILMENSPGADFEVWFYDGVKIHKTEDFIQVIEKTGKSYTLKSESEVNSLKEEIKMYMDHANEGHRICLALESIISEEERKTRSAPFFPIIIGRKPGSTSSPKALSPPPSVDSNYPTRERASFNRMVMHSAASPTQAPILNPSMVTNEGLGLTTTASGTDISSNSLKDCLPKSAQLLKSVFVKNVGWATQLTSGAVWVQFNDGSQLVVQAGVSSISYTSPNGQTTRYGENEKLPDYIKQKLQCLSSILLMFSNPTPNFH
CDK1/CyclinB (h), sequence (P06493 whole entry): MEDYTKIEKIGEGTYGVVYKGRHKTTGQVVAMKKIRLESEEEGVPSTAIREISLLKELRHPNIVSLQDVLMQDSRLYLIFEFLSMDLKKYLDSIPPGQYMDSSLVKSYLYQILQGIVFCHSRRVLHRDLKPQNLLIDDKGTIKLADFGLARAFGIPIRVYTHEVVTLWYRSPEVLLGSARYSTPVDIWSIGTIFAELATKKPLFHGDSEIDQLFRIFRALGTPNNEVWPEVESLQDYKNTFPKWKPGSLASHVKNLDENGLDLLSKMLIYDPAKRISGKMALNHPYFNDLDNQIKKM
CDK1/CyclinB (h), sequence (P14635 whole entry partner): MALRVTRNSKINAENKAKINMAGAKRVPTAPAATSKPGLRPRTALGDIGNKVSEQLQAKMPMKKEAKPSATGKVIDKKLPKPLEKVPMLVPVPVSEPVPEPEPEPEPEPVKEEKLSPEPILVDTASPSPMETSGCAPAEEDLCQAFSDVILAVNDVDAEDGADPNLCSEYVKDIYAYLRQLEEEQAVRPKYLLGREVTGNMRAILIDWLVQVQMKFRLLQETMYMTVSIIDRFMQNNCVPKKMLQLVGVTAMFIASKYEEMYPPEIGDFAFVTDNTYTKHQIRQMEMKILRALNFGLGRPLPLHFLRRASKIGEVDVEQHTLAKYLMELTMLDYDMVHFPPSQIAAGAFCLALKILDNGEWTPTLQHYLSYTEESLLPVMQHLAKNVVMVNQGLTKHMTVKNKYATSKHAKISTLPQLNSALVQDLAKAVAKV
GSK3β (h), sequence (P49841 whole entry): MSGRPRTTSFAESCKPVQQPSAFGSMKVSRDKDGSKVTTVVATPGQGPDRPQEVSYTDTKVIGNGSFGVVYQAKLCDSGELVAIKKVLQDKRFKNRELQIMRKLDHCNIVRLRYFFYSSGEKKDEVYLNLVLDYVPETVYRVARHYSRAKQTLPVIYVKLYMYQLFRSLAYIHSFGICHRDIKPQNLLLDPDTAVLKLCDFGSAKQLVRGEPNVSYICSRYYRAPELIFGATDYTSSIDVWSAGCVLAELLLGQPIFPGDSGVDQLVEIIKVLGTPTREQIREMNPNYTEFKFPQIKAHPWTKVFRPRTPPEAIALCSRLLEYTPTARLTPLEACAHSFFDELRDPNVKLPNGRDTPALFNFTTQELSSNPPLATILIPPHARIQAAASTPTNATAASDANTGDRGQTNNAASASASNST

Row | IC50 (PLK4 (h)) | IC50 (GSK3β (h)) | IC50 (CDK1/CyclinB (h)) | IC50 (SKOV3) [µM] | IC50 (HT-29) [µM] | IC50 (HCT-116) [µM] | IC50 (Colo205) [µM] | IC50 (H460) [µM] | IC50 (DU-145) [µM] | IC50 (PC-3) [µM] | IC50 (SK-N-SH) [µM] | Structure (SMILES)
1 | 0.055 µM and 0.0525 µM | 0.0209 µM and 0.0234 µM | 0.132 µM and 0.12 µM | 0.339 | 0.525 | 0.457 | 0.354 | 0.372 | < 0.302 | 0.457 | < 0.302 | COc1ccc2cc1OCCCC(=O)N(C)CCCNc1ncnc3c1/C(=C/N2)C(=O)N3 [Compound 9]
2 | 4.79 µM | 0.891 µM | > 10 µM | 2.09 | > 10 | > 10 | > 10 | > 10 | > 10 | 2.34 | > 10 | COc1ccc2cc1OCCCCCC(=O)N1CCN(CC1)c1ncnc3c1/C(=C/N2)C(=O)N3 [Compound 18]
3 | 0.525 µM | 0.309 µM and 0.313 µM | 4.68 µM | 1.35 | 2.82 | 1.58 | 1.95 | 1 | 1.23 | 1.66 | < 0.302 | COc1ccc2cc1OCCCC(=O)N(C)CCCN(C)c1ncnc3c1/C(=C/N2)C(=O)N3 [Compound 31]

Reference: US8338422B2, “Indolin-2-ones and aza-indolin-2-ones” (Janssen Pharmaceutica NV, priority 2007, dated 2012)
